Blank lines part the entries; values can stand above or below the molecule they belong to.
How the values were obtained:
[1] = test system: Aminopeptidase + Carboxypeptidase Y; assay: Reactivity of peptidase formulations against synthetic peptides: aminopeptidase A + carboxypeptidase Y; format: biochemical; settings: 0.01 μg/ml, peptide 10 μg/ml, phosphate buffer pH 5.3, 37° C. 3 hours, HPLC
Experimental: (§1) Peptides shown in Table 1 were chemically synthesized. […] All of these synthetic peptides were synthesized with the automatic peptide synthesizing machine PPSM-8 (manufactured by Shimadzu Corporation).
(§2) Each synthetic peptide was dissolved at the concentration of 10 μg/ml in 100 mM phosphate buffer pH 5.3 as to Experiments 1-1 to 1-4, 1-10 to 1-12, 1-16 and 1-21, or in 50 mM Tris-HCl buffer pH 8.0 as to other Experiments. Each of various peptidase formulations shown in Table 1 was then added so that the concentration thereof became 0.01 μg/ml, and the reaction was performed at 37° C. for 3 hours. After the enzyme reaction, the mixture was analyzed by the reverse phase high performance liquid chromatography (HPLC). […] The fractions of the detected peak were collected and amino acid sequence analysis was performed by the automatic peptide analyzer model PPSQ-10 (manufactured by Shimadzu Corporation). […]

[2] = test system: Leucine aminopeptidase, microsomal + Carboxypeptidase Y; assay: Reactivity of peptidase formulations against synthetic peptides: LM + carboxypeptidase Y; format: biochemical; settings: phosphate buffer pH 5.3, 37° C. 3 hours, HPLC
Experimental: as §1, §2

[3] = test system: Leucine aminopeptidase, cytosol + Carboxypeptidase Y; assay: Reactivity of peptidase formulations against synthetic peptides: LC + carboxypeptidase Y; format: biochemical; settings: phosphate buffer pH 5.3, 37° C. 3 hours, HPLC
Experimental: as §1, §2

[4] = test system: Aminipeptidase I + Carboxypeptidase Y; assay: Reactivity of peptidase formulations against synthetic peptides: aminopeptidase I + carboxypeptidase Y; format: biochemical; settings: phosphate buffer pH 5.3, 37° C. 3 hours, HPLC
Experimental: as §1, §2

[5] = target: angiotensin converting enzyme (ACE) (Homo sapiens, UniProt P12821); settings: known in the prior art; cited from earlier work
hypertensive patients = settings: known in the prior art; cited from earlier work
[6] = reported in JP-A-11-100328; cited from earlier work
[7] = test system: spontaneous hypertension rats (SHR); settings: known in the prior art; cited from earlier work
[8] = target: T1, Leucine aminopeptidase, microsomal (Sus scrofa, UniProt P15145); assay: Reactivity of peptidase formulations against synthetic peptides: LM alone; format: biochemical, porcine; settings: no carboxypeptidase, Tris-HCl pH 8.0, 37° C. 3 hours, HPLC
T1 construct: purchased Sigma Chemical Co; host or cells: porcine kidney
T1 sequence (P15145 1-963): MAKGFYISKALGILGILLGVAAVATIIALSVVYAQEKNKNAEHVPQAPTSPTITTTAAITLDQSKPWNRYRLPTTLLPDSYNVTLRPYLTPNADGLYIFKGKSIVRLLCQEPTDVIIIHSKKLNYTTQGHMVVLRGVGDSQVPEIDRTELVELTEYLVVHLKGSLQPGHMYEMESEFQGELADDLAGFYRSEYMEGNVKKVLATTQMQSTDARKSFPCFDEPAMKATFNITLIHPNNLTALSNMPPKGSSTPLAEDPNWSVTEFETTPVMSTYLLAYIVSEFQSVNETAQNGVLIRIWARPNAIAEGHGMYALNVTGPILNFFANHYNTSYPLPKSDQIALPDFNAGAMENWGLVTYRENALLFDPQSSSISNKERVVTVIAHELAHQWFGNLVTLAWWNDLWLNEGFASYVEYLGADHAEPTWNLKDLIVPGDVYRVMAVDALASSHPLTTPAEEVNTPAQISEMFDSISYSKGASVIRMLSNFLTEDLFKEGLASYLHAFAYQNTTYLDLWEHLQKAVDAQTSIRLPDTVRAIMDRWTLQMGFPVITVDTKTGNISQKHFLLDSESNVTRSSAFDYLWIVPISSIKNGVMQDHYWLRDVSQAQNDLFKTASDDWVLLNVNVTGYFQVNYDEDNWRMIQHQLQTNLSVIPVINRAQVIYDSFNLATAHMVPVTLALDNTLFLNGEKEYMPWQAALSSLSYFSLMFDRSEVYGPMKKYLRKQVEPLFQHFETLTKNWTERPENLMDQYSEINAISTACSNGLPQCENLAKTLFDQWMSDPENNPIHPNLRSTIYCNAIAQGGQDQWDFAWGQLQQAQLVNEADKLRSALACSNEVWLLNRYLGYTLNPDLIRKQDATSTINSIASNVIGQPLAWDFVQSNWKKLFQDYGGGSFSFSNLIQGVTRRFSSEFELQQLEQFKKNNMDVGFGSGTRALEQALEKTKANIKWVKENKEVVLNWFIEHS
Experimental: as §1, §2

Aminopeptidase = assay: Reactivity of peptidase formulations against synthetic peptides: aminopeptidase A alone; format: biochemical; settings: no carboxypeptidase, Tris-HCl pH 8.0, 37° C. 3 hours, HPLC
Experimental: as §1, §2

[9] = target: T2, Leucine aminopeptidase, cytosol (Sus scrofa, UniProt P28839); assay: Reactivity of peptidase formulations against synthetic peptides: LC alone; format: biochemical, porcine; settings: no carboxypeptidase, Tris-HCl pH 8.0, 37° C. 3 hours, HPLC
T2 construct: purchased Sigma Chemical Co; host or cells: porcine kidney
T2 sequence (P28839 1-519): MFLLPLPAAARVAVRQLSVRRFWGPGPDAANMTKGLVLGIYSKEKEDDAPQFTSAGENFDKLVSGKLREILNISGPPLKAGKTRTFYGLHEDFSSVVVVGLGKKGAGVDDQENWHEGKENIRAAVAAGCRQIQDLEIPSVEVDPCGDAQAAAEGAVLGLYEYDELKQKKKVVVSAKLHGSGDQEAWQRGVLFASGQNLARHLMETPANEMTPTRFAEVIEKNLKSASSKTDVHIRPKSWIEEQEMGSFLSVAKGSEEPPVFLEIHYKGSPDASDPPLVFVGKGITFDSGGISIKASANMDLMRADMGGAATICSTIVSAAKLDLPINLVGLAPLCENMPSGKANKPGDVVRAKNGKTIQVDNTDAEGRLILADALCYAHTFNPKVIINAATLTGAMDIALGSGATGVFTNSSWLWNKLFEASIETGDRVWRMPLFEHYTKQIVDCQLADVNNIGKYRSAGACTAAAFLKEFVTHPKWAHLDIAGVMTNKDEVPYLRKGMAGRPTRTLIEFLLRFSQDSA
Experimental: as §1, §2

Aminipeptidase I = target: T3, Aminipeptidase I (Streptomyces griseus subsp. griseus, UniProt P80561); assay: Reactivity of peptidase formulations against synthetic peptides: aminopeptidase I alone; format: biochemical; settings: no carboxypeptidase, Tris-HCl pH 8.0, 37° C. 3 hours, HPLC
T3 construct: purchased Sigma Chemical Co
Experimental: as §1, §2

[10] = test system: synthetic peptide consisting of 28 amino acids (SEQ ID NO: 28); assay: Production of the intermediate peptides with proteinase from the 28 amino acid synthetic peptide; format: biochemical; settings: enzyme 0.1 μg/ml, 28-mer 10 μg/ml, phosphate buffer pH 6.1, 37° C. 5 hours; HPLC and sequence analysis
From the text: A peptide consisting of 28 amino acids and having a sequence identical with a part of casein sequence and containing the sequence Ile-Pro-Pro and Val-Pro-Pro therein was chemically synthesized by the automatic peptide synthesizer model […]. The sequence of the peptide synthesized is as follows: […](SEQ ID NO: 28)
This synthetic peptide was reacted with various commercially available proteinase formulations, seeking for a proteinase capable of producing a peptide containing the sequence Ile-Pro-Pro or Val-Pro-Pro therein but containing no Pro other than these sequences.
That is, 0.1 μg/ml of each enzyme was added to 10 μg/ml of the synthetic peptide (in 100 mM phosphate buffer pH 6.1). The mixture was reacted at 37° C. for 5 hours to obtain a reacted liquid. The reacted liquid was analyzed by the reverse phase high performance liquid chromatography (HPLC). The fractions of the detected peptide peaks were collected and amino acid sequence analysis was performed by the automatic peptide analyzer model PPSQ-10.

[11] = test system: synthetic peptide consisting of the 28 amino acids (SEQ ID NO: 28); assay: Two step reaction of proteinase and fraction 4 on the 28 amino acid synthetic peptide; format: biochemical; settings: proteinase 0.1 μg/ml on 28-mer 10 μg/ml, pH 6.1, 37° C. 5 hours, heat inactivation, then fraction 4, HPLC
Experimental: To 10 μg/ml of the synthetic peptide consisting of the 28 amino acids that is the same as the one used in Experiment 2 (in 100 mM phosphate buffer pH 6.1), each of the commercially available proteinase enzymes for food processing shown in Table 4 was added at 0.1 μg/ml. The mixture was reacted at 37° C. for 5 hours. After finishing the reaction, the reacted liquid was heated at 100° C. for 5 minutes for inactivating the proteinase, and then reacted with the fraction 4 obtained in Experiment 4.

Sequence of angiotensin converting enzyme (ACE) (P12821 30-1306, species assumed): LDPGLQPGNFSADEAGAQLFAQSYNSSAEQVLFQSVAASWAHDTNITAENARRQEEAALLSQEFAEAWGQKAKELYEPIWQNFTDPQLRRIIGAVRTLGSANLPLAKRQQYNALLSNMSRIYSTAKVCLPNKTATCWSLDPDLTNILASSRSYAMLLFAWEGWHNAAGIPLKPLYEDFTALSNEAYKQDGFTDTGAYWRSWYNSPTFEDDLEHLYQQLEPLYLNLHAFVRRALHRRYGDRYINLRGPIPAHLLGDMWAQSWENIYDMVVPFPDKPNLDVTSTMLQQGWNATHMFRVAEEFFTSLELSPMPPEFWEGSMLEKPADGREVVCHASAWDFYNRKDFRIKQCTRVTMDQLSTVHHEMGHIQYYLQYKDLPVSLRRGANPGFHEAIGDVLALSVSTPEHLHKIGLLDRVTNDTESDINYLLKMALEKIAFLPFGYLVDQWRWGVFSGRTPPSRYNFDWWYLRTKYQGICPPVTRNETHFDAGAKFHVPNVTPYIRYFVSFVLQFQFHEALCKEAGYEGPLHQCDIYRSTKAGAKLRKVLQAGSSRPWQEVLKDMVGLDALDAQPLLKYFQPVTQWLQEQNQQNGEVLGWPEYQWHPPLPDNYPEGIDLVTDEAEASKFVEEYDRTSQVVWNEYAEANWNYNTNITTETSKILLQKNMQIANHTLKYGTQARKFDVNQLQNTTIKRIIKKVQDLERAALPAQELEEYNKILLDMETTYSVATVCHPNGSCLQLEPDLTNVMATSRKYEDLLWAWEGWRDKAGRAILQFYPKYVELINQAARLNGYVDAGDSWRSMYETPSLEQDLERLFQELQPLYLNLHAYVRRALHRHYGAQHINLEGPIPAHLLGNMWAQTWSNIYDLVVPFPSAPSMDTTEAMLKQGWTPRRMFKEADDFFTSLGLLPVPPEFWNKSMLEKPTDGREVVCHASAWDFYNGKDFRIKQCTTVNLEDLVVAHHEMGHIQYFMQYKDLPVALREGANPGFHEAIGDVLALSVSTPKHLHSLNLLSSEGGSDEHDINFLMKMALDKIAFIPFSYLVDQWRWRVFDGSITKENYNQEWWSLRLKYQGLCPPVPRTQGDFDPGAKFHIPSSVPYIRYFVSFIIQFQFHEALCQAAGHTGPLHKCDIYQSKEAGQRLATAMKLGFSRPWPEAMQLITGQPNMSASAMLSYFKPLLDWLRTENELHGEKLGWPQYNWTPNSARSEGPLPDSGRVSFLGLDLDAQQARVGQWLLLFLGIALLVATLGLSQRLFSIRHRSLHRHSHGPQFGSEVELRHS
T3 sequence (P80561 46-329): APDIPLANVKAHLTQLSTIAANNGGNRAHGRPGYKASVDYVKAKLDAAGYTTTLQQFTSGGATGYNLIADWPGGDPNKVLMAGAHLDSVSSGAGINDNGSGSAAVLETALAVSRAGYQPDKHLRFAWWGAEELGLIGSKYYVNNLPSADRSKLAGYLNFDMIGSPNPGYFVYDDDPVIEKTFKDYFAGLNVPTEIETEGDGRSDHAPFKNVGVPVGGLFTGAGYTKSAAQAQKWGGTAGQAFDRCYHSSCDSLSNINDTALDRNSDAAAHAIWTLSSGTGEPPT

- Existence of IPP or VPP peaks [1]: IPP
- Existence of IPP or VPP peaks [2]: IPP
- Existence of IPP or VPP peaks [3]: IPP
- Existence of IPP or VPP peaks [4]: IPP
Molecule: Asn Ile Pro Pro Leu (NIPPL)

Molecule: Ile Pro Pro (IPP) [Ile-Pro-Pro, tripeptide produced by the method]
- ACE inhibitory activity [5]: strong
- anti-hypertensive effect on hypertensive patients (hypertensive patients): anti-hypertensive effect
- anti-stress activity [6]: anti-stress activity
- anti-hypertensive activity on spontaneous hypertension rats (SHR) [7]: strong anti-hypertensive activity

Molecule: Leu-Pro-Pro [reference compound]
- ACE inhibitory activity [5]: ACE inhibitory activity

Molecule: Val Pro Pro (VPP) [Val-Pro-Pro, tripeptide produced by the method]
- anti-hypertensive effect on hypertensive patients (hypertensive patients): anti-hypertensive effect
- anti-stress activity [6]: anti-stress activity
- anti-hypertensive activity on spontaneous hypertension rats (SHR) [7]: strong anti-hypertensive activity

Molecule: Val Val Pro Pro (VVPP)
- Existence of IPP or VPP peaks [8]: VPP
- Existence of IPP or VPP peaks (Aminopeptidase): VPP
- Existence of IPP or VPP peaks [9]: VPP
- Existence of IPP or VPP peaks (Aminipeptidase I): VPP

- Production of the tripeptides Ile-Pro-Pro and Val-Pro-Pro [11]: Yes
B1: Papain: proteinase, Papaya Latex, Sigma Chemical Co. (protein, UniProt P00784 134-345, looked up)
Papain: IPEYVDWRQKGAVTPVKNQGSCGSCWAFSAVVTIEGIIKIRTGNLNEYSEQELLDCDRRSYGCNGGYPWSALQLVAQYGIHYRNTYPYEGVQRYCRSREKGPYAAKTDGVRQVQPYNEGALLYSIANQPVSVVLEAAGKDFQLYRGGIFVGPCGNKVDHAVAAVGYGPNYILIKNSWGTGWGENGYIRIKRGTGNSYGVCGLYTSSFYPVKN
- Peptides produced in the reaction mixture [10]: a peptide Val-Pro-Pro-Phe-Leu as the peptide containing the sequence Val-Pro-Pro, and peptides Asn-Ile-Pro-Pro-Leu-Thr and Ile-Pro-Pro-Leu-Thr
- Production of the tripeptides Ile-Pro-Pro and Val-Pro-Pro ([11]; listed as papain): can produce the tripeptides Ile-Pro-Pro and Val-Pro-Pro

From patent publication US6994987B1, “Process for producing tripeptides” (Calpis Co., Ltd., priority 1999, dated 2006)
